# Measurements: paper PMC8876975, “EGFR and COX-2 Dual Inhibitor: The Design, Synthesis, and Biological Evaluation of Novel Chalcones” (Molecules, 2022)
# Read-outs that look alike come from different tables or passages of the source.
# What was measured:
# [1] = target: T1, human recombinant sPLA2-V (Homo sapiens, UniProt P39877); assay: Secretory PLA2-V activity assay (Ellman's photometric method)
# T1 sequence (P39877 21-138): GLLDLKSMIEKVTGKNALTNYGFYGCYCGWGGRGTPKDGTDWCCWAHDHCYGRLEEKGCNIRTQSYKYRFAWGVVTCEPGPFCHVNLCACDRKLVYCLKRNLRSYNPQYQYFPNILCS
# [2] = system: pancreatic cancer (PaCa-2); assay: MTT cytotoxicity assay, PaCa-2; assay type: cell-based; details: PaCa-2, MTT, 72 h; read-out: Antiproliferative Activity IC50 ± SEM, PaCa-2
# [3] = system: normal human fetal lung fibroblast cell line, MRC5; assay: Cell viability % (MTT, normal cell line); details: cell line and concentration not named in Table 1; supplement names MRC5 as normal cell line
# EGFR = target: T2, EGFR (Homo sapiens, UniProt P00533); assay: EGFR kinase inhibition assay (EGFR Kinase Assay Kit); assay type: biochemical; details: triplicates; read-out: EGFR Inhibition IC50 ± SEM
# T2 construct: purchased PBS Bioscience (so in the source)
# TNF-α = assay: ELISA, LPS-induced TNF-α release in RAW264.7 macrophages; assay type: cell-based, mouse; details: for Relative Amount of LPS (TNF-α): RAW 264.7, compound 10 µM, TNF-α relative to LPS control = 100
# [4] = system: pancreatic ductal cancer (Panc-1); assay: MTT cytotoxicity assay, Panc-1; assay type: cell-based; details: Panc-1, MTT, 72 h, read-out: Antiproliferative Activity IC50 ± SEM, Panc-1
# [5] = system: human malignant melanoma (A375); assay: MTT cytotoxicity assay, A375; assay type: cell-based; details: read-out: Antiproliferative Activity IC50 ± SEM, A375
# IL-6 = assay: ELISA, LPS-induced IL-6 release in RAW264.7 macrophages; assay type: cell-based, mouse; details: for Relative Amount of LPS (IL-6): RAW 264.7, compound 10 µM, IL-6 relative to LPS control = 100
# Sheep-derived COX-1 = target: T3, Sheep-derived COX-1 (Ovis aries, UniProt P05979); assay: Cyclooxygenase assay (PGE2 quantification), COX-1
# T3 sequence (P05979 25-600): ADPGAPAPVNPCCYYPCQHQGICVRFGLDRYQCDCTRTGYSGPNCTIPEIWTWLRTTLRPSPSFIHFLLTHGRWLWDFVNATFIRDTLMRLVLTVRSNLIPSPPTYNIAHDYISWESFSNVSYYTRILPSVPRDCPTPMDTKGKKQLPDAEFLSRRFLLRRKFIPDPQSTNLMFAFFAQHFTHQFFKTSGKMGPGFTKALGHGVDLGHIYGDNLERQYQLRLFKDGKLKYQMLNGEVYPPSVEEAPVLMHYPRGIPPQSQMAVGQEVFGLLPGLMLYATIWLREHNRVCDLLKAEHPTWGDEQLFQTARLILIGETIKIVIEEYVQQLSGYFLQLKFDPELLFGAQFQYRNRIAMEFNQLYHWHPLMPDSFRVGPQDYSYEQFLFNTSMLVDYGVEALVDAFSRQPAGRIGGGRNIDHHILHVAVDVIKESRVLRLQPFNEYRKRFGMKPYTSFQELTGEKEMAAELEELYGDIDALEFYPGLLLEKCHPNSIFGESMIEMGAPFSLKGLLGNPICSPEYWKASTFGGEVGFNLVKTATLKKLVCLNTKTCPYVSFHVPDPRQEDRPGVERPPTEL
# [6] = system: human colon cancer (HT-29); assay: MTT cytotoxicity assay, HT-29; assay type: cell-based; details: HT-29, MTT, 72 h, read-out: Antiproliferative Activity IC50 ± SEM, HT-29
# human recombinant COX-2 = target: T4, human recombinant COX-2 (Homo sapiens, UniProt P35354); assay: Cyclooxygenase assay (PGE2 quantification), COX-2; assay type: biochemical; details: mean ± SD; n = 3
# T4 construct: purchased Cayman Chemicals
# T4 sequence (P35354 18-604): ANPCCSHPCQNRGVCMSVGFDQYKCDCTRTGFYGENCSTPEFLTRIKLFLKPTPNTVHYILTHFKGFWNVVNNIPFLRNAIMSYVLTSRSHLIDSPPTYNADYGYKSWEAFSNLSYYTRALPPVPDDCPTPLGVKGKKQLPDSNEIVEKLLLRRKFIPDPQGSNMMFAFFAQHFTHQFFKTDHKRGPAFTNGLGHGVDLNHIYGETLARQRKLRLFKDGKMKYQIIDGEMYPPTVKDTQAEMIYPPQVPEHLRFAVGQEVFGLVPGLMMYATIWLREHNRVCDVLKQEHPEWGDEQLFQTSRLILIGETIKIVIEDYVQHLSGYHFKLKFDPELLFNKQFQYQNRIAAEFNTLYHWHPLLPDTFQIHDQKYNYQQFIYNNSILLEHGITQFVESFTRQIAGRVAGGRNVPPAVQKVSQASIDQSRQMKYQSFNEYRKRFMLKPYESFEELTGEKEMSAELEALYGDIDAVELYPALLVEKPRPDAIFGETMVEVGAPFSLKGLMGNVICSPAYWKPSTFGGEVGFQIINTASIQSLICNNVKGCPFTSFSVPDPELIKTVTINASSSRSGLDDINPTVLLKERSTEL
# lung cancer (H-460) = assay: MTT cytotoxicity assay, H-460; assay type: cell-based; details: H-460, MTT, 72 h, read-out: Antiproliferative Activity IC50 ± SEM, H-460
# [7] = Cell viability % (MTT, normal cell line); details: human, MRC5 normal fetal lung fibroblast cells
# [8] = system: normal human fetal lung fibroblast cell line, MRC5
# [9] = read-out: sPLA2-V IC50, mean ± SD, n = 3
# [10] = RAW 264.7, compound 10 µM for 2 h, then LPS 0.5 µg/mL for 22 h
# [11] = read-out: COX-1 IC50, mean ± SD, n = 3
# [12] = Mus musculus, RAW264.7, RAW 264.7, compound 10 µM for 2 h, then LPS 0.5 µg/mL for 22 h
Molecule,"IC50 [1, 9] [nM]",IC50 [2] [nM],IC50 (EGFR) [nM],% Inhibition of TNF-α (TNF-α; [10]) [%],Relative Amount of LPS (TNF-α) (TNF-α),IC50 [4] [nM],IC50 ([5]; 72 h) [nM],% Inhibition of IL-6 (IL-6; [10]) [%],Relative Amount of LPS (IL-6) (IL-6),IC50 (Sheep-derived COX-1; [11]) [nM],IC50 [6] [nM],IC50 (human recombinant COX-2) [nM],IC50 (lung cancer (H-460)) [nM],other results
"CN(C)c1ccc(/C=C/C(=O)c2ccc(/N=N/c3ccc(O)c(C(=O)O)c3)cc2)cc1 [Compound C15, 5. -((E)-(4-((E)-3-(4-(Dimethylamino)phenyl)acryloyl)phenyl)diazenyl)-2-hydroxy benzoic acid]",2010 ± 1110,2300 ± 400,2800 ± 500,81,19,1900 ± 100,3400 ± 1800,78,22,1900 ± 230,1600 ± 200,950 ± 200,1700 ± 200,Cell Viability % [3]: 87.3 ± 2.1%
"CN(C)c1ccc(/C=C/C(=O)c2cccc(/N=N/c3ccc(O)c4ccccc34)c2)cc1 [Compound C16, (E)-3-(4-(Dimethylamino)phenyl)-1-(3-((E)-(4-hydroxynaphthalen-1-yl)diazenyl)phenyl) prop-2-en-1-one]",–,1900 ± 500,2900 ± 400,–,28,–,–,–,31,–,–,6890 ± 800,–,"IC50 [1]: 2510 ± 1050 nM; viability at 72 h [7]: 92.5 ± 2%; inhibition at 10 µM (TNF-α; [12]): 72%; IC50 ([4]; Homo sapiens): 1800 ± 500 nM; IC50 ([5]; Homo sapiens, A-375, 72 h): 2800 ± 1000 nM; inhibition at 10 µM (IL-6; [12]): 69%; IC50 (Sheep-derived COX-1): 7100 ± 1290 nM; IC50 ([6]; Homo sapiens): 1800 ± 400 nM; IC50 (lung cancer (H-460); Homo sapiens, NCI-H460): 2900 ± 1000 nM"
(E)-3-(4-Fluorophenyl)-1-(4-((E)-(4-hydroxynaphthalen-1-yl)diazenyl)phenyl) prop-2-en-1-one [Compound C10],3140 ± 640,900 ± 400,1100,76,24,1600 ± 500,2600 ± 1000,77,23,7370 ± 1440,1100 ± 200,1880 ± 400,1200 ± 100,Cell Viability % [8]: 91.2 ± 2.9%
